# Source: patent US20190153024A1, “NOVEL SALTS AND POLYMORPHS OF SCY-078” (priority 2015, published 2019)
# Columns and labels:
# [1] = Kinetic solubility of SCY-078 freebase (MeOH desolvate, amorphous freebase); assay type: physicochemical; conditions: for Form: residual solid by XRPD; for kinetic solubility (in words): room temperature
# Description: Kinetic Solubility of SCY-078 Freebase: The kinetic solubility of SCY-078 MeOH desolvate and SCY-078 amorphous freebase was evaluated in SGF media, FaSSIF media, FeSSIF media, dextrose buffer (pH 5.5), phosphate buffer (pH 6.0), and phosphate buffer (pH 7.5) at room temperature. First, solid SCY-078 MeOH desolvate or SCY-078 amorphous freebase (˜15 mg) was weighed into a 4-mL vial. Then the relevant media (3.0 mL) was added and the suspensions were stirred on a rolling incubator (25 rpm) at room temperature for 1 hour, 4 hours, and 24 hours respectively. After stirring, 0.5 mL of suspension was centrifuged and filtered (0.45 μm). The residual solids were analyzed by XRPD, and the supernatant was measured by HPLC and pH meter.
# [2] = Physical and chemical stability of trifluoroacetate Types A and B and HCl Type I for 1, 2, 4 and 8 weeks; assay type: physicochemical
# Description: High Power Liquid Chromatography (HPLC) Method—An Agilent 1260 HPLC with DAD detector was utilized to test solubility or to test purity and stability. […] System suitability was tested by injecting standard solutions five times in each sample sequence, and the relative standard deviation of the peak areas was less than 2%.
# Physical and chemical stability evaluation of trifluoroacetate Type A, trifluoroacetate Type B, and HCl Type I was performed at 25° C./60% RH, 40° C./75% RH and 60° C. for 1, 2, 4 and 8 weeks. In the experiments, approximately 20 mg of solid was placed into a 1.5-mL glass vial. The vials were stored under 25° C./60% RH (uncapped), 40° C./75% RH (uncapped) and 60° C. (capped) conditions for 8 weeks. XRPD analysis was then employed to check the crystalline form of the solid, and HPLC was utilized to determine the purity profile at 1, 2, 4 and 8 weeks. […] The solid form change of trifluoroacetate Type A at 2 and 4 weeks was postulated to the air-exposure when the sample was taken out for XRPD characterization.
# [3] = Kinetic solubility of trifluoroacetate Types A and B and HCl Type I (alternative procedure: SGF, FaSSIF and FeSSIF alternative media, acetate pH 5.5, phosphate pH 6.0 alternative media); conditions: residual solid by XRPD
# Description: An alternative media (“FaSSIF alternative media”) was used to study the trifluoroacetate salts (Type A and B) and the HCl Type I salt. More specifically, the media was prepared by weighing 0.17 g of sodium phosphate monobasic (NaH2PO4, anhydrous), 0.021 g of sodium hydroxide, and 0.31 g of sodium chloride into a 50-mL volumetric flask and was dissolve with approximately 48 mL of purified water. The pH was adjusted to exactly 6.5 using 1 M HCl or 1 M NaOH and diluted to volume with purified water. 0.11 g of SIF powder was then added, stirred and sonicated until all the powder was completely dissolved. The solution was equilibrated for 2 hours at RT before use. The solution can be stored at RT for 48 hours or 4° C. for 7 days and should be equilibrated to RT before use
# An alternative media (“FeSSIF alternative media”) was used to study the trifluoroacetate salts (Type A and B) and the HCl Type I salt. More specifically, the media was prepared by transferring 0.41 mL of glacial acid and weighing 0.20 g of sodium hydroxide, 0.59 g of sodium chloride into a 50-mL volumetric flask. This was dissolved with approximately 48 mL of purified water. The pH was adjusted to exactly 5.0 using 1 M HCl or 1 M NaOH and diluted to volume with purified water. 0.56 g of SIF powder was added, stirred and sonicated until all the powder is completely dissolved. The solution can be stored at RT for 48 hours or 4° C. for 7 days and should be equilibrated to RT before use.
# Acetate Buffer (pH 5.5) Preparation—The acetate buffer (pH 5.5) used for the trifluoroacetate salts (Type A and B) and the HCl Type I salt was prepared by placing 0.60 g sodium acetate (NaC2H3O2.3H2O) in a 100-mL volumetric flask, adding 3 mL of 2 M acetic acid solution, and then adding purified water to volume.
# An alternative media (“phosphate (pH 6.0) alternative media”) was used to study the trifluoroacetate salts (Type A and B) and the HCl Type I salt. More specifically, the media was prepared by dissolving 2.72 g of 0.2 M monobasic potassium phosphate (KH2PO4) in purified water, and diluting with purified water t 100 mL. 0.8 g of 0.2 M sodium hydroxide in purified water was diluted with purified water to 100 mL. Then 50 mL of the 0.2 M monobasic potassium phosphate solution was placed in a 200-mL volumetric flask, 5.6 mL of 0.2 M sodium hydroxide solution was added, and then purified water was added to volume.
# The trifluoroacetate salts (Type A and B) and the HCl Type I salt were tested using the following alternative procedure. First, 15 mg, 36 mg or 90 mg solid was weighted into a 4-mL plastic tube, and 3 mL of relevant media was added before leaving the suspension on a rolling incubator (25 r/min). For SCF, 90 mg of solid was used. For FaSSIF, acetate buffer (pH 5.5), and phosphate buffer (pH 6.0), 15 mg solid was used. For FeSSIF, 36 mg of solid was used. 1.0 mL aliquot of the suspension was sampled for centrifugation with the supernatant submitted for HPLC and pH measurement and solid for XRPD characterization at 1 hr, 4 hr and/or 24 hrs.
# The solubility of trifluoroacetate Type A, Type B and HCl Type I was measured in SGF at ambient temperature. Approximately 90 mg of solid sample was weighted into a 4-mL centrifuge tube, and 3 mL of SGF buffer was added before leaving the suspension on a rolling incubator (25 r/min). 1.0 mL aliquot of the suspension was sampled for centrifugation (10000 rpm, 3 mins) the supernatant was analyzed by HPLC and pH measurement and solid by XRPD characterization at 1 hr, 4 hr and 24 hrs, respectively.
# The solubility of trifluoroacetate Type A, Type B and hydrochloride Type I was measured in the FaSSIF alternative media at ambient temperature. Approximately 15 mg of solid sample was weighted into a 4-mL plastic tube, and 3 mL of the media was added before leaving the suspension on a rolling incubator (25 r/min).
# [4] = Chemical and physical stability of SCY-078 salts on storage (25° C./60% RH, 40° C./75% RH, 60° C.); assay type: physicochemical
# Description: For all compounds tested other than the trifluoroacetate salts (Type A and B) and the HCl Type I and II salts, the conditions and parameters used for measuring solubility are shown in Table 2A and for measuring stability are showing in Table 3A. The conditions and parameters used for the solubility of the trifluoroacetate salts (Type A and B) and the HCl Type I and II salts are shown in Table 2B and for stability are shown in Table 3B.
# [5] = 25° C./60% RH (uncapped), 1 week
# [6] = 25° C./60% RH (uncapped), 2 weeks
# [7] = 25° C./60% RH (uncapped), 4 weeks
# [8] = 25° C./60% RH (uncapped), 8 weeks
# [9] = 40° C./75% RH (uncapped), 1 week
# [10] = 40° C./75% RH (uncapped), 2 weeks
# [11] = 40° C./75% RH (uncapped), 4 weeks
# [12] = 40° C./75% RH (uncapped), 8 weeks
# [13] = 25° C./60% RH, open dish, 4 days
smiles,measurement,setting,value
CC(C)[C@@H](C)[C@@]1(C)CC[C@]2(C)[C@H]3CC[C@@H]4[C@@]5(COC[C@]4(C)[C@@H](OC[C@](C)(N)C(C)(C)C)[C@H](n4ncnc4-c4ccncc4)C5)C3=CC[C@@]2(C)[C@@H]1C(=O)O [Amorph.],Form,"[1]; FaSSIF, 1 hour",Amorph.
same,Form,"[1]; FaSSIF, 4 hours",Amorph.
same,Form,"[1]; FaSSIF, 24 hours",Amorph.
same,Form,"[1]; FeSSIF, 1 hour",Amorph.
same,Form,"[1]; FeSSIF, 4 hours",Amorph.
same,Form,"[1]; FeSSIF, 24 hours",Amorph.
same,Form,"[1]; pH 5.5 buffer, 4 hours",Amorph.
same,Form,"[1]; pH 5.5 buffer, 24 hours",Amorph.
same,Form,"[1]; pH 6.0 buffer, 4 hours",Amorph.
same,Form,"[1]; pH 6.0 buffer, 24 hours","Amorph,"
same,Form,"[1]; pH 7.5 buffer, 4 hours",Amorph.
same,Form,"[1]; pH 7.5 buffer, 24 hours",Amorph.
CC(C)[C@@H](C)[C@@]1(C)CC[C@]2(C)[C@H]3CC[C@@H]4[C@@]5(COC[C@]4(C)[C@@H](OC[C@](C)(N)C(C)(C)C)[C@H](n4ncnc4-c4ccncc4)C5)C3=CC[C@@]2(C)[C@@H]1C(=O)O [Desolv.],Form,"[1]; FaSSIF, 1 hour",NF 1
same,Form,"[1]; FaSSIF, 4 hours",NF 1
same,Form,"[1]; FaSSIF, 24 hours",NF 1
same,Form,"[1]; FeSSIF, 1 hour",NF 1
same,Form,"[1]; FeSSIF, 4 hours",NF 1
same,Form,"[1]; FeSSIF, 24 hours",NF 1
same,Form,"[1]; pH 5.5 buffer, 4 hours",NF 2
same,Form,"[1]; pH 5.5 buffer, 24 hours",NF 2
same,Form,"[1]; pH 6.0 buffer, 4 hours",NF 1
same,Form,"[1]; pH 6.0 buffer, 24 hours",NF 3
same,Form,"[1]; pH 7.5 buffer, 4 hours",Desolv.
same,Form,"[1]; pH 7.5 buffer, 24 hours",Desolv.
CC(C)[C@@H](C)[C@@]1(C)CC[C@]2(C)[C@H]3CC[C@@H]4[C@@]5(COC[C@]4(C)[C@@H](OC[C@](C)(N)C(C)(C)C)[C@H](n4ncnc4-c4ccncc4)C5)C3=CC[C@@]2(C)[C@@H]1C(=O)O [SCY-078 MeOH desolvate],kinetic solubility (in words),"[1]; FaSSIF and pH 5.5, pH 6.0, pH 7.5 buffers",only sparingly soluble
same,solid form change during solubility measurement,"[1]; FeSSIF, FaSSIF, pH 5.5 and 6.0 buffers",Solid form change was observed
same,kinetic solubility (in words),[1]; SGF and FeSSIF,high solubility
CC(C)[C@@H](C)[C@@]1(C)CC[C@]2(C)[C@H]3CC[C@@H]4[C@@]5(COC[C@]4(C)[C@@H](OC[C@](C)(N)C(C)(C)C)[C@H](n4ncnc4-c4ccncc4)C5)C3=CC[C@@]2(C)[C@@H]1C(=O)O.O=C(O)C(F)(F)F [TFA Type A],HPLC purity,[2]; [5],99.9%
same,Solid form,[2]; [5],Type A
same,HPLC purity,[2]; [6],99.9%
same,Solid form,[2]; [6],Type B
same,HPLC purity,[2]; [7],99.9%
same,Solid form,[2]; [7],Type A + B
same,Solid form,"[2]; 25° C./60% RH (uncapped), 6 weeks",Type A
same,HPLC purity,[2]; [8],99.9%
same,Solid form,[2]; [8],Type A
same,HPLC purity,[2]; [9],99.9%
same,Solid form,[2]; [9],Type A
same,HPLC purity,[2]; [10],99.9%
same,Solid form,[2]; [10],Type B
same,HPLC purity,[2]; [11],99.9%
same,Solid form,[2]; [11],Type A + B
same,Solid form,"[2]; 40° C./75% RH (uncapped), 6 weeks",Type A
same,HPLC purity,[2]; [12],99.9%
same,Solid form,[2]; [12],Type A
same,HPLC purity,"[2]; 60° C. (capped), 1 week",99.9%
same,Solid form,"[2]; 60° C. (capped), 1 week",Type A
same,HPLC purity,"[2]; 60° C. (capped), 2 weeks",99.9%
same,Solid form,"[2]; 60° C. (capped), 2 weeks",Type B
same,HPLC purity,"[2]; 60° C. (capped), 4 weeks",99.9%
same,Solid form,"[2]; 60° C. (capped), 4 weeks",Type A + B
same,Solid form,"[2]; 60° C. (capped), 6 weeks",Type A
same,HPLC purity,"[2]; 60° C. (capped), 8 weeks",99.9%
same,Solid form,"[2]; 60° C. (capped), 8 weeks",Type A
same,Initial HPLC purity,[2]; Initial,99.9%
same,Form change,"[3]; FaSSIF alternative media, 1 hr",No
same,Form change,"[3]; FaSSIF alternative media, 4 hrs",No
same,Form change,"[3]; FaSSIF alternative media, 24 hrs",No
same,Form change,"[3]; SGF, 1 hr",No
same,Form change,"[3]; SGF, 4 hrs",No
same,Form change,"[3]; SGF, 24 hrs",No
same,Form change,"[3]; acetate buffer (pH 5.5), 4 hrs",No
same,Form change,"[3]; acetate buffer (pH 5.5), 24 hrs",No
CC(C)[C@@H](C)[C@@]1(C)CC[C@]2(C)[C@H]3CC[C@@H]4[C@@]5(COC[C@]4(C)[C@@H](OC[C@](C)(N)C(C)(C)C)[C@H](n4ncnc4-c4ccncc4)C5)C3=CC[C@@]2(C)[C@@H]1C(=O)O.O=C(O)CC(O)(CC(=O)O)C(=O)O [Type M],Impurity % by HPLC,[4]; [13],0.39%
same,Solid form,[4]; [13],Type M
same,Impurity % by HPLC,"[4]; 40° C./75% RH, open dish, 4 days",0.00%
same,Solid form,"[4]; 40° C./75% RH, open dish, 4 days, *One peak change was observed",Type M*
same,Impurity % by HPLC,"[4]; 60° C. closed, 4 days",0.63%
same,Solid form,"[4]; 60° C. closed, 4 days",Type M
same,Impurity % by HPLC,[4]; Initial,0.42%
CC(C)[C@@H](C)[C@@]1(C)CC[C@]2(C)[C@H]3CC[C@@H]4[C@@]5(COC[C@]4(C)[C@@H](OC[C@](C)(N)C(C)(C)C)[C@H](n4ncnc4-c4ccncc4)C5)C3=CC[C@@]2(C)[C@@H]1C(=O)O.O=C(O)CC(O)(CC(=O)O)C(=O)O [Type S],Impurity % by HPLC,"[4]; 25° C./60% RH, open dish, 1 week",0.03%
same,Solid form,"[4]; 25° C./60% RH, open dish, 1 week, **Peak shifts were observed",Type S**
same,Impurity % by HPLC,"[4]; 40° C./75% RH, open dish, 1 week",0.03%
same,Solid form,"[4]; 40° C./75% RH, open dish, 1 week, **Peak shifts were observed",Type S**
same,Solid form,"[4]; 60° C. closed, 1 week",Type S
same,Impurity % by HPLC,"[4]; 60° C., closed dish, 1 week",0.11%
same,Impurity % by HPLC,[4]; Initial,0.10%
